Source: US11053196B2, “Substituted indoline derivatives as dengue viral replication inhibitors” (JANSSEN PHARMACEUTICALS, INC., priority 2017, dated 2021)
pEC50: −log10 of the molar value.

What was measured:
DENV-2 16681 strain = assay: DENV-2 antiviral assay (eGFP-labeled virus in Vero cells); format: cell-based, Dengue virus; conditions: DENV-2 16681 eGFP, MOI 0.5, 3 days
Procedure: The antiviral activity of all the compounds of the invention was tested against the DENV-2 16681 strain which was labeled with enhanced green fluorescent protein (eGPF). The culture medium consists of minimal essential medium supplemented with 2% of heat-inactivated fetal calf serum, 0.04% gentamycin (50 mg/mL) and 2 mM of L-glutamine. Vero cells, obtained from ECACC, were suspended in culture medium and 25 μL was added to 384-well plates (2500 cells/well), which already contain the antiviral compounds. Typically, these plates contain a 5-fold serial dilution of 9 dilution steps of the test compound at 200 times the final concentration in 100% DMSO (200 nL). […] Finally, each plate contains wells which are assigned as virus controls (containing cells and virus in the absence of compound), cell controls (containing cells in the absence of virus and compound) and medium controls (containing medium in the absence of cells, virus and compounds). To the wells assigned as medium control, 25 μL of culture medium was added instead of Vero cells. Once the cells are added to the plates, the plates were incubated for 30 minutes at room temperature to allow the cells to distribute evenly within the wells. Next, the plates were incubated in a fully humidified incubator (37° C., 5% CO2) until the next day. Then, DENV-2 strain 16681, labeled with eGFP, was added at a multiplicity of infection (MOI) of 0.5.
Therefore, 15 μL of virus suspension was added to all the wells containing test compound and to the wells assigned as virus control. In parallel, 15 μL of culture medium was added to the medium and cell controls. Next, the plates were incubated for 3 days in a fully humidified incubator (37° C., 5% CO2). At the day of the read out, the eGFP fluorescence was measured using an automated fluorescence microscope at 488 nm (blue laser). Using an in-house LIMS system, inhibition dose response curves for each compound were calculated and the half maximal effective concentration (EC50) was determined. Therefore, the percent inhibition (I) for every test concentration is calculated using the following formula: I=100*(ST−SCC)/(SVC−SCC); ST, SCC and SVC are the amount of eGFP signal in the test compound, cell control and virus control wells, respectively. The EC50 represents the concentration of a compound at which the virus replication is inhibited with 50%, as measured by a 50% reduction of the eGFP fluorescent intensity compared to the virus control. The EC50 is calculated using linear interpolation (Table 1).

DENV-1 strain TC974#666 = assay: Tetravalent RT-qPCR assay, serotype 1; format: cell-based; conditions: Dengue virus, DENV1, 72 h; RT-qPCR serotype 1 TC974#666, Vero cells, day 3
Procedure: (§1) The antiviral activity of the compounds of the invention was tested against DENV-1 strain TC974#666 (NCPV), DENV-2 strain 16681, DENV-3 strain H87 (NCPV) and DENV-4 strain H241 (NCPV) in a RT-qPCR assay. Therefore, Vero cells were infected with either DENV-1, or -2, or -3, or -4 in the presence or absence of test compounds. At day 3 post-infection, the cells were lysed and cell lysates were used to prepare cDNA of both a viral target (the 3′UTR of DENV; Table 2) and a cellular reference gene (1-actin, Table 2). Subsequently, a duplex real time PCR was performed on a Lightcycler480 instrument. The generated Cp value is inversely proportional to the amount of RNA expression of these targets. Inhibition of DENV replication by a test compound results in a shift of Cp's for the 3′UTR gene. On the other hand, if a test compound is toxic to the cells, a similar effect on 1-actin expression will be observed. The comparative ΔΔCp method is used to calculate EC50, which is based on the relative gene expression of the target gene (3′UTR) normalized with the cellular housekeeping gene (1-actin). In addition, CC50 values are determined based on the C, values acquired for the housekeeping gene β-actin.
(§2) The culture medium consisted of minimal essential medium supplemented with 2% of heat-inactivated fetal calf serum, 0.04% gentamycin (50 mg/mL) and 2 mM of L-glutamine. Vero cells, obtained from ECACC, were suspended in culture medium and 75 μL/well was added in 96-well plates (10000 cells/well), which already contain the antiviral compounds. […] In addition, each plate contains wells which are assigned as virus controls (containing cells and virus in the absence of compound) and cell controls (containing cells in the absence of virus and compound). Once the cells were added in the plates, the plates were incubated in a fully humidified incubator (37° C., 5% CO2) until the next day. Dengue viruses serotype-1, 2, 3 and 4 were diluted in order to obtain a Cp of ˜22-24 in the assay. Therefore, 25 μL of virus suspension was added to all the wells containing test compound and to the wells assigned as virus control. In parallel, 25 μL of culture medium was added to the cell controls. Next, the plates were incubated for 3 days in a fully humidified incubator (37° C., 5% CO2). After 3 days, the supernatant was removed from the wells and the cells were washed twice with ice-cold PBS (−100 μL). The cell pellets within the 96-well plates were stored at −80° C. for at least 1 day. Next, RNA was extracted using the Cells-to-CT™ lysis kit, according to the manufacturer's guideline (Life Technologies). The cell lysates can be stored at −80° C. or immediately used in the reverse transcription step.
(§3) In preparation of the reverse transcription step, mix A (table 3A) was prepared and 7.57 μL/well was dispensed in a 96-well plate. After addition of 5 μL of the cell lysates, a five minute denaturation step at 75° C. was performed (table 3B). Afterwards, 7.43 μL of mix B was added (table 3C) and the reverse transcription step was initiated (table 3D) to generate cDNA.
(§4) Finally, a RT-qPCR mix was prepared, mix C (table 4A), and 22.02 μL/well was dispensed in 96-well LightCycler qPCR plates to which 3 μL of cDNA was added and the qPCR was performed according to the conditions in table 4B on a LightCycler 480.
(§5) Using the LightCycler software and an in-house LIMS system, dose response curves for each compound were calculated and the half maximal effective concentration (EC50) and the half maximal cytotoxic concentration (CC50) were determined (Tables 5-8).

DENV-2 strain 16681 = assay: Tetravalent RT-qPCR assay, serotype 2; format: cell-based; conditions: Dengue virus, DENV2, 72 h; RT-qPCR serotype 2 16681, Vero cells, day 3
Procedure: as §1, §2, §3, §4, §5

DENV-3 strain H87 = assay: Tetravalent RT-qPCR assay, serotype 3; format: cell-based; conditions: Dengue virus, DENV3, 72 h; RT-qPCR serotype 3 H87, Vero cells, day 3
Procedure: as §1, §2, §3, §4, §5

DENV-4 strain H241 = assay: Tetravalent RT-qPCR assay, serotype 4; format: cell-based; conditions: Dengue virus, DENV4, 72 h; RT-qPCR serotype 4 H241, Vero cells, day 3
Procedure: as §1, §2, §3, §4, §5

Vero cells = conditions: African green monkey
[1] = Toxicity in DENV-2 antiviral assay plates (ATPlite cell viability); conditions: African green monkey, CC50, Vero cells, same plates as DENV-2 antiviral assay
in vitro [2] = format: cell-based; conditions: African green monkey
Procedure: as §1, with “The comparative ΔΔCp method is used to calculate EC50, which is based on the relative gene expression of the target gene (3′UTR) normalized with the cellular housekeeping gene (1-actin).” left out, “β-actin. […]” for “β-actin.”
as §5

in vitro [3] = conditions: African green monkey

| SMILES | pEC50 (DENV-2 16681 strain) | pEC50 (DENV-1 strain TC974#666) | pEC50 (DENV-2 strain 16681) | pEC50 (DENV-3 strain H87) | pEC50 (DENV-4 strain H241) | CC50 (Vero cells) [nM] | CC50 [1] [nM] | CC50 at 3 days (in vitro [2]) [nM] | CC50 (in vitro [3]) [nM] |
| --- | --- | --- | --- | --- | --- | --- | --- | --- | --- |
| COc1cc(NC(C(=O)N2CCc3ccc(S(F)(F)(F)(F)F)cc32)c2ccc(Cl)cc2)cc(OCCCC(=O)O)c1 (single isomer, unassigned) [Compound 1B, 4-(3-((1-(4-chlorophenyl)-2-oxo-2-(6-(pentafluoro-λ^6-sulfanyl)indolin-1-yl)ethyl)amino)-5-methoxyphenoxy)butanoic acid] | 9.96 | 10.02 | 9.74 | 8.72 | 8.02 | 13000 |  |  |  |
| COc1cc(NC(C(=O)N2CCc3c(C)cc(C(F)(F)F)cc32)c2ccc(Cl)cc2)cc(OCCCC(=O)O)c1 (single isomer, unassigned) [Compound 2B, 4-(3-((1-(4-chlorophenyl)-2-(4-methyl-6-(trifluoromethyl)indolin-1-yl)-2-oxoethyl)amino)-5-methoxyphenoxy)butanoic acid] | 10.11 | 10.04 | 10.21 | 9.07 | 8.00 | 14000 |  |  |  |
| COc1cc(NC(C(=O)N2CCc3cc(F)c(C(F)(F)F)cc32)c2ccc(Cl)cc2)cc(OCCCC(=O)O)c1 (single isomer, unassigned) [Compound 3A, 4-(3-((1-(4-chlorophenyl)-2-(5-fluoro-6-(trifluoromethyl)indolin-1-yl)-2-oxoethyl)amino)-5-methoxyphenoxy)butanoic acid] | 7.44 |  |  |  |  |  | 12000 |  |  |
| COc1cc(NC(C(=O)N2CCc3cc(F)c(C(F)(F)F)cc32)c2ccc(Cl)cc2)cc(OCCCC(=O)O)c1 (single isomer, unassigned) [Compound 3B, 4-(3-((1-(4-chlorophenyl)-2-(5-fluoro-6-(trifluoromethyl)indolin-1-yl)-2-oxoethyl)amino)-5-methoxyphenoxy)butanoic acid] | 9.92 | 10.00 | 10.02 | 8.82 | 7.85 |  |  | > 2500 | 13000 |
| COc1cc(NC(C(=O)N2CCc3c(C)cc(OC(F)(F)F)cc32)c2ccc(Cl)cc2)cc(OCCCC(=O)O)c1 (single isomer, unassigned) [Compound 4A, 4-(3-((1-(4-chlorophenyl)-2-(4-methyl-6-(trifluoromethoxy)indolin-1-yl)-2-oxoethyl)amino)-5-methoxyphenoxy)butanoic acid] | 7.96 |  |  |  |  |  | 13000 |  |  |
| COc1cc(NC(C(=O)N2CCc3c(C)cc(OC(F)(F)F)cc32)c2ccc(Cl)cc2)cc(OCCCC(=O)O)c1 (single isomer, unassigned) [Compound 4B, 4-(3-((1-(4-chlorophenyl)-2-(4-methyl-6-(trifluoromethoxy)indolin-1-yl)-2-oxoethyl)amino)-5-methoxyphenoxy)butanoic acid] | 10.24 | 9.96 | 10.17 | 9.04 | 7.92 |  |  |  | 13000 |
| COc1cc(NC(C(=O)N2CCc3cc(F)c(OC(F)(F)F)cc32)c2ccc(Cl)cc2)cc(OCCCC(=O)O)c1 (single isomer, unassigned) [Compound 5B, 4-(3-((1-(4-chlorophenyl)-2-(5-fluoro-6-(trifluoromethoxy)indolin-1-yl)-2-oxoethyl)amino)-5-methoxyphenoxy)butanoic acid] | 9.92 | 9.48 | 9.54 | 8.59 | 7.70 | 12000 |  |  |  |
| [2H]C(Nc1cc(OC)cc(OCCCC(=O)O)c1)(C(=O)N1CCc2ccc(OC(F)(F)F)cc21)c1ccc(Cl)cc1 (single isomer, unassigned) [Compound 7A-D, 4-(3-((1-(4-chlorophenyl)-1-deuterio-2-oxo-2-(6-(trifluoromethoxy)indolin-1-yl)ethyl)amino)-5-methoxyphenoxy)butanoic acid] | 10.00 | 9.62 | 9.80 | 8.62 | 7.89 |  |  |  | 12000 |
| [2H]C(Nc1cc(OC)cc(OCCCC(=O)O)c1)(C(=O)N1CCc2ccc(OC(F)(F)F)cc21)c1ccc(Cl)cc1 (single isomer, unassigned) [Compound 7B-D, 4-(3-((1-(4-chlorophenyl)-1-deuterio-2-oxo-2-(6-(trifluoromethoxy)indolin-1-yl)ethyl)amino)-5-methoxyphenoxy)butanoic acid] | 7.80 |  |  |  |  | 9600 |  |  |  |
| COc1cc(NC(C(=O)N2CCc3sc(C(F)(F)F)cc32)c2ccc(Cl)cc2)cc(OCCCC(=O)O)c1 (single isomer, unassigned) [Compound 10A, 4-(3-((1-(4-chlorophenyl)-2-oxo-2-(2-(trifluoromethyl)-5,6-dihydro-4H-thieno[3,2-b]pyrrol-4-yl)ethyl)amino)-5-methoxyphenoxy)butanoic acid] | 9.52 | 9.66 | 9.96 | 8.38 | 7.52 |  |  |  | 14000 |
| COc1cc(NC(C(=O)N2CCc3sc(C(F)(F)F)cc32)c2ccc(Cl)cc2)cc(OCCCC(=O)O)c1 (single isomer, unassigned) [Compound 10B, 4-(3-((1-(4-chlorophenyl)-2-oxo-2-(2-(trifluoromethyl)-5,6-dihydro-4H-thieno[3,2-b]pyrrol-4-yl)ethyl)amino)-5-methoxyphenoxy)butanoic acid] | 7.43 |  |  |  |  | 12000 |  |  |  |
